Reference: PMC12491243, “Rational design of indoleamine 2,3-dioxygenase 1 (IDO1) inhibitors featuring 1,2,3-triazole derivatives with enhanced anti-inflammatory and analgesic efficacy” (Frontiers in Pharmacology, 2025)

How the values were obtained:
Format in all cases: in vivo
KM mice = experiment: Acute toxicity test in KM mice; conditions: 500 mg/kg via gavage, 14 days
Experimental: We evaluated the safety of compound 14e using an acute toxicity test in KM mice. Male mice (8–9 weeks old) were randomly divided into a solvent control group and a 14e-treated group. The control group received an equivalent volume of solvent (5% DMSO +40% PEG300 + 1% Tween-80 + 54% saline) via gavage, while the treatment group received compound 14e solution (500 mg/kg). Beginning on day 1 after administration, body weight and general appearance were monitored for 14 days. At the end of the study, blood samples were collected to determine serum levels of Alanine Aminotransferase (ALT) and Aspartate Aminotransferase (AST). In addition, representative organs (heart, liver, spleen, lung, and kidneys) were excised, weighed, and used to calculate organ indices (organ index = organ weight/body weight × 100%).
FIGURE 7 Acute toxicity experiments of compound 14e were conducted in mice. (A) The body wight of mice were recorded for 14 days after treatment. (B) The acute toxicity experiments examined the effects of 14e on mouse organs. (C) Effect of acute toxicity experimental studies on blood biochemical indices ALT and AST in mice.

Iba1 = experiment: Western blot of Iba1 in spinal cord of CFA mice; conditions: L4–L6 spinal cord, 30 mg/kg i.p. once a day for 3 days, versus vehicle group
Experimental: Given the critical role of microglial activation in inflammation-mediated responses, we investigated whether Compound 14e could modulate microglial activity in the spinal dorsal horn of mice following Complete Freund’s Adjuvant (CFA) injection. First, we assessed the expression of the microglial marker Iba1 in the L4–L6 segments of the spinal cord.
FIGURE 4 Compound 14e prevented the upregulation of Iba1 in CFA mice.
The mice were anesthetized with isoflurane, and 40 μL of CFA (Sigma-Aldrich) was intraplantarly injected into the mid-plantar surface of their left hind paws. As for the control group, an equivalent volume of normal saline was injected ([Jiang et al., 2018]).
(§1) The compound 14e were diluted with 10% DMSO, and were intraperitoneally injected with 30 mg/kg into the mice once a day for 3 days after CFA. The dosage of compound 14e was determined based on our preliminary experiments.
Animals were deeply anesthetized with 1% pentobarbital sodium (0.1 g/kg, i. p.) and the ipsilateral spinal cord in the lumbar enlargement site was rapidly separated and homogenized in ice-cold lysis buffer containing 50 mM Tris-HCl (pH 7.4), 150 mM NaCl, 1% NP-40, 0.1% SDS, 1 mM phenylmethylsulfonyl fluoride and protease phosphatase inhibitor (Solarbio Company, China). […] The protein concentrations were measured using a bicinchoninic acid (BCA) kit (Pierce Biotechnology Inc.). […]

[1] = tested on: CFA-induced inflammatory pain model; experiment: CFA-induced thermal hyperalgesia, paw withdrawal latency; conditions: CFA mice, 30 mg/kg i.p., ipsilateral side, 12 to 72 h post-CFA
Experimental: To evaluate the analgesic effects of Compound 14e in vivo, we established an inflammatory pain model using intraplantar injection of CFA. Compound 14e (30 mg/kg) was administered intraperitoneally at 6 h, with subsequent doses at 48 and 72 h after CFA injection. Behavioral assessments, including von Frey testing for mechanical allodynia and heat stimuli for thermal hyperalgesia, were conducted on the injected hind paw at baseline (BL), as well as at 6, 12, 18, 24, 48 and 72 h post-CFA injection. Additionally, flinching and guarding behaviors, indicators of spontaneous pain, were evaluated 72 h after CFA injection.
FIGURE 5 Compound 14e attenuates mechanical allodynia, thermal hyperalgesia and spontaneous pain of inflammatory pain in mice. (A,B) Evaluation of CFA-induced mechanical allodynia as assessed by withdrawal frequency to 0.07 g (A) and 0.4 g (B) von Frey filaments in mice repetitive treated with 10% DMSO or compound 14e. […]
as §1
For the thermal nociceptive response, paw withdrawal latencies (PWLs) to thermal stimulus were measured by a heat flux radiometer (Ugo Basile S.R.L., Italy) ([Liu et al., 2023]). […]

## O=C1COc2ccc(NC(=O)c3cccc(-c4cn(Cc5c(F)cccc5Cl)nn4)c3)cc2N1 [Compound 14e]
KM mice
  acute toxicity, overall: does not cause noticeable toxicity
  organ indices (heart, liver, spleen, lung, kidneys): remained stable
  serum ALT level: did not significantly affect
  serum AST level: did not significantly affect
KM mice; versus solvent control
  body weight: no significant changes
Iba1
  Iba1 protein level (Western blot): significantly reduced
[1]
  thermal hyperalgesia, paw withdrawal latency (PWL): significantly alleviated
